Legend:
Fgg gene (kidneys) = experiment: qRT-PCR of Fgg gene (fibrinogen) in the kidneys of HP model mice given soluble Oscar-Fc fusion protein; format: in vivo, mice (C57BL/6N); details: HP4W_sOscar vs HP4W_NS; diet with high phosphorus content 4 weeks; p=0.00071; n=5 to 6
Excerpt: (§1) Subsequently, the mixture was vortexed vigorously for 15 seconds.
To evaluate the effect of the soluble Oscar-Fc fusion protein on kidney function, the expression of a kidney function marker was confirmed in the kidneys of HP4W_NS, HP4W_sOscar, and LP4W of Reference Example 2.

FGF23 gene (the skull) = experiment: qRT-PCR of FGF23 in the skull of HP model mice given soluble human Oscar-Fc fusion protein; format: in vivo, mice (C57BL/6N); details: mice on diet with high phosphorus content (2% inorganic phosphorus) 4 weeks; 10 mg/kg intraperitoneally weekly, five times; vs physiological saline; normalized to Maea; p=0.026; n=5 to 6
Excerpt: as §1

FGF23 in plasma = experiment: Measurement of concentration of FGF23 in plasma by ELISA method in HP model mice; format: in vivo, mice (C57BL/6N); details: mice on diet with high phosphorus content 4 weeks; 10 mg/kg intraperitoneally weekly, five times; vs physiological saline; p=0.049
Description: The concentration of FGF23 in plasma was measured using an ELISA kit sold by KAINOS Laboratories, Inc. (TCY4000). A plasma sample cryopreserved in a freezer was thawed on ice, and the sample undiluted or the sample diluted 5-fold with standard solution 1 (FGF-23 concentration, 0 pg/ml) supplied with the kit was used for measurement.
50 μl of the diluted sample or a sample for a calibration curve was added to each well of an ELISA plate supplied with the kit. The plate was sealed, followed by stirring and incubating at room temperature for 2 hours. After the two hours, the sample in each well was aspirated and discarded. 300 μl of a wash solution supplied with the kit was then added to each well, and the wash solution was removed. This operation was performed four times. After the wash solution was thoroughly removed, 100 μl of an enzyme-labeled antibody solution (FGF-23 Conjugate) supplied with the kit was added to each well, and the plate was sealed, followed by stirring and incubating at room temperature for 1 hour. After the 1 hour, the sample in each well was aspirated and discarded. […] Absorbance at 450 nm was then measured with an absorbance microplate reader (Multiskan GO, Thermo Fisher Scientific Inc.). The concentration of FGF23 in plasma was calculated by making a calibration curve from the measurement result of recombinant FGF23 supplied with the kit.

[1] = system: PRP genes (Prb1, Prh1, Prp2, and Prpmp5) (the parotid glands); details: mice on diet with high phosphorus content 4 weeks; 10 mg/kg intraperitoneally weekly, five times; vs physiological saline; n=5 to 6
Description: After the wet weights of the collected organs and tissue were measured, the organs and tissue were rapidly frozen in liquid nitrogen and stored at −80° C.

soluble human Oscar-Fc fusion protein: Soluble human Oscar-Fc fusion protein of SEQ ID NO: 2 (human Oscar sequence, hinge, human IgG1); inhibits ligand binding to Oscar
expression of the Fgg gene in the kidneys (qRT-PCR) (Fgg gene (kidneys)): significantly suppressed | expression of FGF23 in the skull (qRT-PCR) (FGF23 gene (the skull)): suppressed | increase in the concentration of FGF23 in plasma (ELISA) (FGF23 in plasma): statistically significantly suppressed | expression of PRP genes (Prb1, Prh1, Prp2, and Prpmp5) in the parotid glands (qRT-PCR) [1]: suppressed

— patent US12091701B2, “Screening method for candidate substances for active component to prevent or treat at least one disease selected from the group consisting of renal hypofunction, chronic kidney disease and kidney failure” (KARYDO THERAPEUTIX, INC., priority 2016, dated 2024)
